The values that follow come from ChEMBL document CHEMBL6096730, “Unlocking the Therapeutic Potential of Natural Products for Alzheimer's Disease” (J Med Chem, 2025).

Test [1] addresses Amyloid-beta precursor protein (Homo sapiens) (UniProt P05067). The test can be described thus: Inhibition of self-mediated Amyloid beta (1 to 42) (unknown origin) aggregation at 20 uM measured every 5 mins by ThT fluorescence based assay relative to control.
Another test concerns the target Acetylcholinesterase (Homo sapiens, UniProt P22303). The experiment in a line: Inhibition of human erythrocyte acetylcholinesterase using acetylthiocholine as substrate by Ellman's method.

The structures appear in SMILES notation.

Sequence of Acetylcholinesterase (P22303 whole entry): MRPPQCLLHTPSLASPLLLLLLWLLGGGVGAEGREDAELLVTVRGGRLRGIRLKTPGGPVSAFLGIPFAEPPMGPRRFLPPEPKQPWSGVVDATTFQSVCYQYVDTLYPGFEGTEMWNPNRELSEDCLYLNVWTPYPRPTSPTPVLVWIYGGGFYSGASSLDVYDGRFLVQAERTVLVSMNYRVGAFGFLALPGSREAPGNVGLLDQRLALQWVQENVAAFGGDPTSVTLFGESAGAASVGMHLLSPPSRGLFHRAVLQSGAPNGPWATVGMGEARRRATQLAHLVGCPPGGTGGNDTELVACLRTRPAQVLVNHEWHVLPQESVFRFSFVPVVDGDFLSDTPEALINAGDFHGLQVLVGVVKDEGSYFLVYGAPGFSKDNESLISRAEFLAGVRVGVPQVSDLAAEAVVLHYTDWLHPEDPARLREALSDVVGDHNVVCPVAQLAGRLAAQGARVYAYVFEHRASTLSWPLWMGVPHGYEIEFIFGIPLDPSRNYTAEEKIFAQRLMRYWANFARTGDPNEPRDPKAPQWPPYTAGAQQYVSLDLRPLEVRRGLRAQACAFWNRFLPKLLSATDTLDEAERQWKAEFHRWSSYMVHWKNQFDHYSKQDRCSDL
Sequence of Amyloid-beta precursor protein (Homo sapiens) (P05067 whole entry): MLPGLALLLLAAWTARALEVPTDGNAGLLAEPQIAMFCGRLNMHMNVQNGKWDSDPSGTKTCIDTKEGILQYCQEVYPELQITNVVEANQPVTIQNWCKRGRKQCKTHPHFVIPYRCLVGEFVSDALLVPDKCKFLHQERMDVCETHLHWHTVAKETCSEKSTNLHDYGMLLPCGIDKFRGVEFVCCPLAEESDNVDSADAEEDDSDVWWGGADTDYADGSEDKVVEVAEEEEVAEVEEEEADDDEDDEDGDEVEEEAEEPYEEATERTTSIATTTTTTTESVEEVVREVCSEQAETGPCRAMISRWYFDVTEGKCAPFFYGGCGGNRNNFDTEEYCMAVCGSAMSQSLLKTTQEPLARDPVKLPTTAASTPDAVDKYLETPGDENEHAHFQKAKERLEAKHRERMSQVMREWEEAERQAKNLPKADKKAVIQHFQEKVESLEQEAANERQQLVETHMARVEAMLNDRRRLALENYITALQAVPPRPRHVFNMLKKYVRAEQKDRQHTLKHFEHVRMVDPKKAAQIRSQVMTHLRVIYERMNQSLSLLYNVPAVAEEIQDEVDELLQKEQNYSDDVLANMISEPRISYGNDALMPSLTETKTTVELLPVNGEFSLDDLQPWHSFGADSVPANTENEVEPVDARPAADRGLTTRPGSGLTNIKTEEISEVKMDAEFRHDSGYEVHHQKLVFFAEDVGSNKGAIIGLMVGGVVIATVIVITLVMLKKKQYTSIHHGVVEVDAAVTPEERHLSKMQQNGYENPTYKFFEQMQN

Usually inhibition stands for the share of the control response that was lost under treatment. Low values mean a weak effect, high ones a strong effect. On to `COc1cc([C@H](O)[C@H](C)Oc2ccc(CCCO)cc2O)ccc1O`, for which the inhibition in test [1] stood at 81%.
By IC50 is commonly meant the concentration at which inhibition is half-maximal. With `COc1ccc([C@H]2O[C@@H](O)[C@H]3[C@@H]2C(=O)O[C@@H]3c2cc(OC)c3c(c2)OCO3)cc1OC`, the IC50 at Acetylcholinesterase is 0.3 µM.
